Assays:
[1] = tested on: OPM-2 Luc cells; assay: tumor PD model (OPM-2 Luc); type: in vivo; settings: dosed orally to female athymic nude mice inoculated with OPM-2 Luc cells; compared with Reference Compound 1
Procedure: Both compounds were dosed orally to female athymic nude mice inoculated with OPM-2 Luc cells.

[2] = tested on: OPM-2 Luc cells; assay: OPM-2 xenograft efficacy model; type: in vivo; settings: dosed orally to female athymic nude mice inoculated with OPM-2 Luc cells
Procedure: Example 1 was dosed orally to female athymic nude mice inoculated with OPM-2 Luc cells.

[3] = target: recombinant human Mcl-1 (residues 171-327) / Bim interaction (Homo sapiens (Human), UniProt Q07820); assay: biochemical; type: binding; settings: 0.1 nM Mcl-1(171-327), 0.05 nM biotin-Bim (51-76); read-out: Mcl-1 HTRF IC50
[4] = tested on: human multiple myeloma cell line, OPM-2; assay: Cell viability assay (OPM-2 10 FBS), CellTiter-Glo; type: cell-based; settings: read-out: OPM-2 10% FBS IC50 IP; OPM-2 cells, 10% FBS, 16 h incubation
How it was run: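 IC50 values come from 4-parameter logistic fits of luminescence signals reflecting cell viability. Treatment lasted 16 h at 37 °C in complete medium with 10% FBS, starting from 3000 cells/well.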

Chain of recombinant human Mcl-1 (residues 171-327) / Bim interaction (Q07820 171-327): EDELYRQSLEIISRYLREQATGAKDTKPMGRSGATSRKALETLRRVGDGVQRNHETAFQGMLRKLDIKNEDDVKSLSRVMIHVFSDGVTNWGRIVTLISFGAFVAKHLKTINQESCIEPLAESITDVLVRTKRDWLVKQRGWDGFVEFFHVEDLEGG

With CCO[C@]1(CN2CCN3CCOC[C@@H]3C2)/C=C/C[C@H](C)[C@@H](C)S(=O)(=O)NC(=O)c2ccc3c(c2)N(C[C@@H]2CC[C@H]21)C[C@@]1(CCCc2cc(Cl)ccc21)CO3 [Example 1, (1 S,3′R,6′R,7′R,8′E, 11′S,12′R)-6-chloro-7′-ethoxy-7′-((9aS)-hexahydropyrazino[2,1-c][1,4]oxazin-8(1H)-ylmethyl)-11′,12′-dimethyl-3,4-dihydro-2H,15′H-spiro[naphthalene-1,22′-[20]oxa[13]thia[1,14]diazatetracyclo[14.7.2.0-3,6˜.0˜19,24˜]pentacosa[8,16,18,24]tetraen]-15′-one 13′,13′-dioxide] the “in vivo efficacy relative to Reference Compound 1 in a tumor PD model” value [1] was “superior in vivo efficacy”, the “in vivo efficacy in an OPM-2 xenograft efficacy model” value [2] was “in vivo efficacy” and the IC50 [3] was 0.086 nM. It also gave an IC50 [4] of 85 nM.

Reference: patent US10821115B2, “Compounds that inhibit Mcl-1 protein” (priority 2017, dated 2020)
